Values of other authors as cited in patent US20190201327A1 (AMPERSAND BIOPHARMACEUTICALS, INC., priority 2017, published 2019).

Tested on: neovascularization

For `CC1=C(CO)C(=O)O[C@@H]([C@@H](C)[C@H]2CC[C@H]3[C@@H]4C[C@H]5O[C@]56[C@@H](O)C(N=[N+]=[N-])CC(=O)[C@]6(C)[C@H]4CC[C@]23C)C1` (stereo partly shown) [3-azido WFA, 3-azido Withaferin A], the neovascularization in vivo is given as “abrogated neovascularization in vivo in a dose dependent manner”.
